In ChEMBL document CHEMBL6071193, “Structure-Activity Relationship of Potent, Selective, and Orally Bioavailable Molecular Glue Degraders of CK1α” (ACS Med Chem Lett, 2024):
≈ marks a conversion by molar mass, not a printed value. Calls of active or inactive are those of the source. No cut-off for these calls is given here.

Assays:
[1] = AUClast in female CD-1 mouse at 10 mg/kg, po administered as 5% v/v NMP, 5% v/v solutol HS-15, 20% PEG 400 and 70% v/v normal saline formulation and measured after 24 hrs; type: ADME, organism-based; settings: in vivo
[2] = Cmax in female CD-1 mouse at 3 mg/kg, iv administered as 5% v/v NMP, 5% v/v solutol HS-15, 20% PEG 400 and 70% v/v normal saline formulation and measured after 24 hrs; type: ADME, organism-based; settings: in vivo
[3] = Apparent permeability across basolateral to apical side in MDCK-II cells at 10 micromol/L incubated for 1 hrs by UPLC/MS analysis; type: ADME, cell-based, Canis lupus familiaris; settings: dog, mdck-ii, 1 h, 10 µM, dose 10 µmol/L
[4] = Clearance in female CD-1 mouse assessed as hepatic blood flow at 3 mg/kg, iv administered as 5% v/v NMP, 5% v/v solutol HS-15, 20% PEG 400 and 70% v/v normal saline formulation and measured after 24 hrs; type: ADME, organism-based; settings: in vivo
Jurkat = assay: Cytotoxicity against human Jurkat cells expressing HiBiT-tagged IKZF1 at 0.0001 to 100 uM measured over 24 hrs by Cell-Titer Glo assay; type: toxicity, cell-based; settings: dose 0.0001-100 µM
[5] = biological target: Protein cereblon/Eukaryotic peptide chain release factor GTP-binding subunit ERF3A (Homo sapiens) (UniProt Q96SW2+P15170); assay: PROTAC activity at CRBN (unknown origin)/human HiBiT-tagged GSPT1 transfected in HEK293 cells assessed as induction of GSPT1 degradation measured after 24 hrs by Nano-Glo reagent based luminescence analysis; type: cell-based
[6] = Apparent permeability across apical to basolateral side in MDCK-II cells at 10 micromol/L incubated for 1 hrs by UPLC/MS analysis; type: ADME, cell-based, Canis lupus familiaris; settings: dog, mdck-ii, 1 h, 10 µM, dose 10 µmol/L
[7] = Cmax in female CD-1 mouse at 10 mg/kg, po administered as 5% v/v NMP, 5% v/v solutol HS-15, 20% PEG 400 and 70% v/v normal saline formulation and measured after 24 hrs; type: ADME, organism-based; settings: in vivo
MOLM-13 [8] = assay: Antiproliferative activity against human MOLM-13 cells incubated for 72 hrs by Cell-Titer Glo assay; type: functional, cell-based; settings: MOLM-13, 72 h
HEK293 = assay: Cytotoxicity against HEK293 cells expressing HiBiT-tagged CK1alpha at 0.0001 to 100 uM measured over 24 hrs by Cell-Titer Glo assay; type: toxicity, cell-based; settings: human, hek293, 24 h, dose 0.0001-100 µM
Cereblon/Ikaros = Cereblon/Ikaros (Homo sapiens, UniProt Q96SW2+Q13422); assay: PROTAC activity at CRBN/HiBiT-tagged IKZF1 in human Jurkat cells transfected with LgBiT expression vector assessed as induction of IKZF1 degradation measured after 24 hrs by luminescence based GloMax Discover assay; type: cell-based
[9] = biological target: T1, Cereblon/Casein kinase I alpha (Homo sapiens, UniProt P48729+Q96SW2); assay: Binding affinity to Halo-tagged CRBN (unknown origin)/HiBiT-tagged CK1alpha in HEK293 cells transfected with LgBiT expression vector assessed as ternary complex formation by measuring fold increase in NanoBRET signal preincubated with MG132 for 30 mins followed by compound addition and measured after 2 hrs by NanoBRET assay relative to control; type: cell-based
Target sequence in this assay (P48729 2-337 limits assumed): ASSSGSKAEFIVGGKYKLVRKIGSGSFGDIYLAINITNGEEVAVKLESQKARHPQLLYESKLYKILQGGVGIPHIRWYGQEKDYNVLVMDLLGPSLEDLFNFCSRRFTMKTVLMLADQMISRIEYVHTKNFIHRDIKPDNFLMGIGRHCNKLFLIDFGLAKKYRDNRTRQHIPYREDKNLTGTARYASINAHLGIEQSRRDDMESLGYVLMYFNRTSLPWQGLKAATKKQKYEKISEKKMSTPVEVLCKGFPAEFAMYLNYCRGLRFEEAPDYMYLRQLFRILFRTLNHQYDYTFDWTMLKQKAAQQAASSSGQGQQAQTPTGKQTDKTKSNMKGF
Target sequence in this assay (Q96SW2 whole entry partner): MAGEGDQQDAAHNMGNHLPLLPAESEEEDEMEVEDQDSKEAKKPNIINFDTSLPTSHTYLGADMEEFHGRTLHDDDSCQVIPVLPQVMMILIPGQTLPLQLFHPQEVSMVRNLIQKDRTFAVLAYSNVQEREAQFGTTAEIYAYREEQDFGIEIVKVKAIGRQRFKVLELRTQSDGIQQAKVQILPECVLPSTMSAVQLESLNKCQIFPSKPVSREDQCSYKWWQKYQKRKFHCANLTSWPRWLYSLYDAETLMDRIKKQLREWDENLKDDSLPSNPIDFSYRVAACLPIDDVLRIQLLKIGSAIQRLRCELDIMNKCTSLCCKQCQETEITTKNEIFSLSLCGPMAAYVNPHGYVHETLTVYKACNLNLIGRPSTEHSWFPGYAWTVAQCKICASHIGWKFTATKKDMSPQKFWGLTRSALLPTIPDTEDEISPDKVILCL

[10] = Half-life in female CD-1 mouse at 3 mg/kg, iv administered as 5% v/v NMP, 5% v/v solutol HS-15, 20% PEG 400 and 70% v/v normal saline formulation and measured after 24 hrs; type: ADME, organism-based; settings: in vivo
[11] = biological target: T1, Cereblon/Casein kinase I alpha; assay: PROTAC activity at CRBN/HiBiT-tagged CK1alpha in HEK293 cells transfected with LgBiT expression vector assessed as induction of CK1alpha degradation measured after 24 hrs by luminescence based GloMax Discover assay; type: cell-based
Target sequence in this assay (P48729 whole entry): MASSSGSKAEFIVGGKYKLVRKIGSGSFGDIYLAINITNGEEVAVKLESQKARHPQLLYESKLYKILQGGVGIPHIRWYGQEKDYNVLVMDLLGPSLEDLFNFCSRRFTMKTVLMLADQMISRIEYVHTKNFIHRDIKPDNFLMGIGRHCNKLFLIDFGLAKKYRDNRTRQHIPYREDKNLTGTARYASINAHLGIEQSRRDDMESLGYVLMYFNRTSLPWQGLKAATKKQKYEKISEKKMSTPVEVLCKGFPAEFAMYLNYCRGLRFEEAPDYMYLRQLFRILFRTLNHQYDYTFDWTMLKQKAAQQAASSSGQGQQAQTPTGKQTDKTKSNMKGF
Target sequence in this assay (Q96SW2 whole entry): as the sequence (Q96SW2 whole entry partner) above

[12] = Volume of distribution at steady state in female CD-1 mouse at 3 mg/kg, iv administered as 5% v/v NMP, 5% v/v solutol HS-15, 20% PEG 400 and 70% v/v normal saline formulation and measured after 24 hrs; type: ADME, organism-based; settings: in vivo
[13] = Metabolic stability in pooled human liver microsomes assessed as half-life at 10 uM measured upto 4 hrs in presence of NADPH by UPLC-MS/MS analysis; type: ADME, Microsome
[14] = Tmax in female CD-1 mouse at 10 mg/kg, po administered as 5% v/v NMP, 5% v/v solutol HS-15, 20% PEG 400 and 70% v/v normal saline formulation and measured after 24 hrs; type: ADME, organism-based; settings: in vivo
[15] = Stability in human plasma assessed as half-life at 10 uM measured upto 48 hrs by UPLC-MS/MS analysis; type: ADME, cell-free
[16] = Oral bioavailability in female CD-1 mouse at 10 mg/kg administered as 5% v/v NMP, 5% v/v solutol HS-15, 20% PEG 400 and 70% v/v normal saline formulation and measured after 24 hrs; type: ADME, organism-based; settings: in vivo
[17] = Stability in mouse plasma assessed as half-life at 10 uM measured upto 48 hrs by UPLC-MS/MS analysis; type: ADME, cell-free; settings: 48 h, 10 µM
[18] = biological target: T1, Cereblon/Casein kinase I alpha; assay: PROTAC activity at CRBN/HiBiT-tagged CK1alpha in HEK293 cells transfected with LgBiT expression vector assessed as induction of CK1alpha degradation by measuring maximal efficacy at 10 uM measured after 24 hrs by luminescence based GloMax Discover assay relative to control; type: cell-based
Target sequence in this assay (P48729 2-337 limits assumed): as the sequence (P48729 2-337 limits assumed) above
Target sequence in this assay (Q96SW2 whole entry partner): as the sequence (Q96SW2 whole entry partner) above

[19] = Metabolic stability in mouse liver microsomes assessed as half-life at 10 uM measured upto 4 hrs in presence of NADPH by UPLC-MS/MS analysis; type: ADME, Microsome; settings: microsomes, 4 h, 10 µM
MOLM-13 [20] = assay: Downregulation of CK1alpha protein level in human MOLM-13 cells at 1 uM measured after 4 hrs by TMT-proteomic analysis; type: functional, cell-based
[21] = AUClast in female CD-1 mouse at 3 mg/kg, iv administered as 5% v/v NMP, 5% v/v solutol HS-15, 20% PEG 400 and 70% v/v normal saline formulation and measured after 24 hrs; type: ADME, organism-based; settings: in vivo
[22] = biological target: T1, Cereblon/Casein kinase I alpha; assay: PROTAC activity at CRBN/HiBiT-tagged CK1alpha in HEK293 cells transfected with LgBiT expression vector assessed as induction of CK1alpha degradation by measuring degradation rate at 10 uM measured after 24 hrs by luminescence based GloMax Discover assay; type: cell-based
Target sequence in this assay (P48729 2-337 limits assumed): as the sequence (P48729 2-337 limits assumed) above
Target sequence in this assay (Q96SW2 whole entry partner): as the sequence (Q96SW2 whole entry partner) above

[23] = Solubility of compound at pH 7.4 incubated for 18 hrs by UV-spectra analysis; type: physicochemical; settings: buffer, pH 7.4, 18 h
[24] = biological target: T1, Cereblon/Casein kinase I alpha; assay: Binding affinity to Halo-tagged CRBN (unknown origin)/HiBiT-tagged CK1alpha in HEK293 cells transfected with LgBiT expression vector assessed as ternary complex formation preincubated with MG132 for 30 mins followed by compound addition and measured after 2 hrs by NanoBRET assay; type: cell-based
Target sequence in this assay (P48729 whole entry): as the sequence (P48729 whole entry) above
Target sequence in this assay (Q96SW2 whole entry): as the sequence (Q96SW2 whole entry partner) above

Sequence of Protein cereblon/Eukaryotic peptide chain release factor GTP-binding subunit ERF3A (Homo sapiens) (P15170 whole entry, looked up): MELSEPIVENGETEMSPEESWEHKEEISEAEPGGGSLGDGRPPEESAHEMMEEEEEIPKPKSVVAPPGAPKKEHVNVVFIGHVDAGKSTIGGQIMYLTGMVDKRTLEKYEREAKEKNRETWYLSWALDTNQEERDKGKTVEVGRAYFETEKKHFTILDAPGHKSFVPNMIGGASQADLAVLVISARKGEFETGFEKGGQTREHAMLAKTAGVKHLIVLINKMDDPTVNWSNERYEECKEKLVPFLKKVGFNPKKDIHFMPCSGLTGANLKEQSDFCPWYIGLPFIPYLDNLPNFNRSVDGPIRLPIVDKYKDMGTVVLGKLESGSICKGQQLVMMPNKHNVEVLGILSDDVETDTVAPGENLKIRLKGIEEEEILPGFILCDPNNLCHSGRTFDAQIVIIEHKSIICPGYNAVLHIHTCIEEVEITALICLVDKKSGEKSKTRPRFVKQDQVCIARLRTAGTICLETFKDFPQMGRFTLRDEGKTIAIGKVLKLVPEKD
Sequence of Protein cereblon/Eukaryotic peptide chain release factor GTP-binding subunit ERF3A (Homo sapiens) (Q96SW2 whole entry, looked up): as the sequence (Q96SW2 whole entry partner) above

With `O=C1CCC(N2Cc3cc(NC(=O)c4cccc(F)c4)ccc3C2=O)C(=O)N1` (configuration not stated) as the compound, how does the AUClast [1] read?
Its AUClast is 2804 ng·h/mL.

What about the Cmax [2] of the same compound?
The Cmax was 6450 ng/mL.

What about the Papp [3] of the same compound?
The Papp was 1.8 ×10⁻⁶ cm/s.

And the QH [4]?
Its QH is 27%.

What about the Activity (Jurkat) of the same compound?
The Activity was “Non-Toxic”.

And the Activity [5]?
Its Activity is “inactive”.

What about the Papp [6] of the same compound?
Its Papp is 0.6 ×10⁻⁶ cm/s.

What about the Cmax [7] of the same compound?
Its Cmax is 1617 ng/mL.

And the IC50 (MOLM-13 [8])?
Its IC50 is 28 nM.

What about the Activity (HEK293) of the same compound?
Its Activity is “Non-Toxic”.

What about the Activity (Cereblon/Ikaros) of the same compound?
The Activity was “inactive”.

What about the fold change (FC) [9] of the same compound?
The fold change (FC) was 7.4.

What about the t1/2 [10] of the same compound?
Its t1/2 is 1.19 h.

What about the DC50 [11] of the same compound?
Its DC50 is 4 nM.

And the Vdss [12]?
Its Vdss is 0.88 L/kg.

And the t1/2 [13]?
The t1/2 was greater than 10 h.

And the Tmax [14]?
The Tmax was 0.25 h.

What about the t1/2 [15] of the same compound?
The t1/2 was 10.6 h.

What about the F [16] of the same compound?
Its F is 41%.

What about the t1/2 [17] of the same compound?
The t1/2 was 10 h.

What about the Emax [18] of the same compound?
Its Emax is 88%.

What about the t1/2 [19] of the same compound?
Its t1/2 is greater than 10 h.

And the Activity (MOLM-13 [20])?
The Activity was “Active”.

What about the AUClast [21] of the same compound?
The AUClast was 2049 ng·h/mL.

What about the Activity [22] of the same compound?
Its Activity is 1.3 h⁻¹.

What about the solubility [23] of the same compound?
The solubility was 19 µM (≈ 7.25 µg/mL).

And the EC50 [24]?
The EC50 was 119 nM.
